The nature of data set [1]: Inhibition of Leishmania mexicana cathepsin L-like protease CPB2.8 using Z-Phe-Arg-AMC as substrate by fluorometric assay.
In data set [2] the test system is Leishmania mexicana. Description: Inhibition of Leishmania mexicana cathepsin L-like protease CPB2.8 at 20 uM using Z-Phe-Arg-AMC as substrate by fluorometric assay relative to control.
Data set [3] has as its target Rhodesain (Trypanosoma brucei rhodesiense) (UniProt Q95PM0). Description: Inhibition of Trypanosoma brucei rhodesiense rhodesain at 20 uM using Z-Phe-Arg-AMC as substrate by fluorometric assay relative to control.
Data set [4] has as its target T1, Procathepsin L (Homo sapiens, UniProt P07711). As to the kind of experiment: Inhibition of human cathepsin-L at 20 uM using Z-Phe-Arg-AMC as substrate by fluorometric assay relative to control.
Target sequence in this assay (P07711 114-333 limits assumed): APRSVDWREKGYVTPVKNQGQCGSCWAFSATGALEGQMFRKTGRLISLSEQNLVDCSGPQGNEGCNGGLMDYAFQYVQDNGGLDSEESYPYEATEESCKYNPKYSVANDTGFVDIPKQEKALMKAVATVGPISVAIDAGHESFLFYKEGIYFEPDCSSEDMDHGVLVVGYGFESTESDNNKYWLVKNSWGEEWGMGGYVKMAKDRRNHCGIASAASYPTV
For data set [5], the target named is Cruzipain (Trypanosoma cruzi) (UniProt P25779). Description: Inhibition of Trypanosoma cruzi cruzain at 20 uM using Z-Phe-Arg-AMC as substrate by fluorometric assay relative to control.
Chain of Cruzipain (Trypanosoma cruzi) (P25779 123-467 limits assumed): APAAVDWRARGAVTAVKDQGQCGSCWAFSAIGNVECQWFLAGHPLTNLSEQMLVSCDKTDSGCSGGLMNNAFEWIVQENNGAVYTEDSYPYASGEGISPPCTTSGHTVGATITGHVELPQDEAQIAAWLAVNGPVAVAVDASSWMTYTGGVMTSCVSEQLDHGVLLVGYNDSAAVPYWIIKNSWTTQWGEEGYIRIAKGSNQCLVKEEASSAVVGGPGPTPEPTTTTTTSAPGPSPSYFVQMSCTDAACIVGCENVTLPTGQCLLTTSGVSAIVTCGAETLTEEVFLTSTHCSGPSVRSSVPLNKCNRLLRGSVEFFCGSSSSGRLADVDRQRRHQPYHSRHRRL
The target in data set [6] is Cathepsin B (Homo sapiens, UniProt P07858). As to the kind of experiment: Inhibition of human cathepsin-B at 20 uM using Z-Phe-Arg-AMC as substrate by fluorometric assay relative to control.
Data set [7] has as its target T2, Falcipain 2 (Plasmodium falciparum) (UniProt Q9N6S8).
T2 sequence (whole entry): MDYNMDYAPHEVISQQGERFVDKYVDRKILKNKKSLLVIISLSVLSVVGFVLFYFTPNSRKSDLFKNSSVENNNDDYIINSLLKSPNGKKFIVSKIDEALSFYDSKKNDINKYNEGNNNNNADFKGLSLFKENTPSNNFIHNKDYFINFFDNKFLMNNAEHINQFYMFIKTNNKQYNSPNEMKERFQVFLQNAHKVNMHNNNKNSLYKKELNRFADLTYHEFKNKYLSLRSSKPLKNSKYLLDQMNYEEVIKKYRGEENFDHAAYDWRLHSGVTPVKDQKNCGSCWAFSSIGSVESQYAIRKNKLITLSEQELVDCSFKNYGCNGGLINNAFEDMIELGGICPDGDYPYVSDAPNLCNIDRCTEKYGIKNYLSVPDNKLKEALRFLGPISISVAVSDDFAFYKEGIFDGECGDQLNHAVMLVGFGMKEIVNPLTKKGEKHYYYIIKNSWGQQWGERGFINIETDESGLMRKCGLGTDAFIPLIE
As to the kind of experiment: Inhibition of Plasmodium falciparum falcipain 2 at 20 uM using Z-Phe-Arg-AMC as substrate by fluorometric assay relative to control.

Data set [8] concerns the target Cruzipain (Trypanosoma cruzi, UniProt P25779). As to the kind of experiment: Inhibition of Trypanosoma cruzi cruzain using Z-Phe-Arg-AMC as substrate by fluorometric assay.
For data set [9], the system named is Leishmania major. Description: Antileishmanial activity against Leishmania major promastigotes. The data set is classed as functional, organism-based.
For data set [10], the target named is Rhodesain (Trypanosoma brucei rhodesiense, UniProt Q95PM0). As to the kind of experiment: Inhibition of Trypanosoma brucei rhodesiense rhodesain using Z-Phe-Arg-AMC as substrate by fluorometric assay.
Chain of Rhodesain (Q95PM0 whole entry): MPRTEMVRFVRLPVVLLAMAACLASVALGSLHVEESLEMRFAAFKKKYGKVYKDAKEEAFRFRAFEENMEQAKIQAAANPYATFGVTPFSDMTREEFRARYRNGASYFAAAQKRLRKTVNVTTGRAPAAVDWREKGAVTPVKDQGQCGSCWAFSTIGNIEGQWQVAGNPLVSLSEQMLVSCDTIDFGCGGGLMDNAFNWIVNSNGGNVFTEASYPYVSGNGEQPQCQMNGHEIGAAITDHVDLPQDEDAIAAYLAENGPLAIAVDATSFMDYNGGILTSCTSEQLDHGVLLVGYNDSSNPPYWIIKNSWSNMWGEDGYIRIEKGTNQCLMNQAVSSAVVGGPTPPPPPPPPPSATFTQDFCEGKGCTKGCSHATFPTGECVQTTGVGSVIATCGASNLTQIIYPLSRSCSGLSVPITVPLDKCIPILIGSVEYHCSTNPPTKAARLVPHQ
Data set [11] concerns J774. Description: Cytotoxicity against mouse J774 cells. The format is cell-based.
For data set [12], the system named is Leishmania major. As to the kind of experiment: Antileishmanial activity against luciferase-fused Leishmania major amastigotes infected in BMDM after 24 hrs by luminescence assay. The data set is classed as functional, organism-based.
The target of data set [13] is T3, Falcipain 2 (Plasmodium falciparum, UniProt Q9N6S8).
T3 sequence (Q9N6S8 whole entry): T2 sequence (whole entry)
Description: Inhibition of Plasmodium falciparum falcipain 2 using Z-Phe-Arg-AMC as substrate by fluorometric assay.

In data set [14] the target is T2, Falcipain 2 (Plasmodium falciparum). Description: Inhibition of Plasmodium falciparum falcipain 2 assessed as second order inactivation rate constant using Z-Phe-Arg-AMC as substrate by fluorometric assay.
Data set [15] addresses T1, Procathepsin L. As to the kind of experiment: Inhibition of human cathepsin-L using Z-Phe-Arg-AMC as substrate by fluorometric assay.
Target sequence in this assay (P07711 whole entry): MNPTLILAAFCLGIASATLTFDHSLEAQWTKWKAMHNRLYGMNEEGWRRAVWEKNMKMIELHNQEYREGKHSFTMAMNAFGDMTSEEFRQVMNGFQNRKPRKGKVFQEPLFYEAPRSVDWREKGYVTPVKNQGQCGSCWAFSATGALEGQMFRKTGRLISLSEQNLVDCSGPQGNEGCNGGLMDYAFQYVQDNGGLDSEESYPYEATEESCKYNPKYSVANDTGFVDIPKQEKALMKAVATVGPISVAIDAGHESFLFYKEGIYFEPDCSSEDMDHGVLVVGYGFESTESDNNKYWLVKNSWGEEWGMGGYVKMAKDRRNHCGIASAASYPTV
Data set [16] relates to Leishmania major. Description: Antileishmanial activity against Leishmania major promastigotes at 20 uM. The data set is classed as functional, organism-based.

The source made the active and inactive calls. No cut-off for these calls is given here.

Chain of Rhodesain (Trypanosoma brucei rhodesiense) (Q95PM0 1-450): as the sequence (Q95PM0 whole entry) above
Chain of Cruzipain (P25779 whole entry): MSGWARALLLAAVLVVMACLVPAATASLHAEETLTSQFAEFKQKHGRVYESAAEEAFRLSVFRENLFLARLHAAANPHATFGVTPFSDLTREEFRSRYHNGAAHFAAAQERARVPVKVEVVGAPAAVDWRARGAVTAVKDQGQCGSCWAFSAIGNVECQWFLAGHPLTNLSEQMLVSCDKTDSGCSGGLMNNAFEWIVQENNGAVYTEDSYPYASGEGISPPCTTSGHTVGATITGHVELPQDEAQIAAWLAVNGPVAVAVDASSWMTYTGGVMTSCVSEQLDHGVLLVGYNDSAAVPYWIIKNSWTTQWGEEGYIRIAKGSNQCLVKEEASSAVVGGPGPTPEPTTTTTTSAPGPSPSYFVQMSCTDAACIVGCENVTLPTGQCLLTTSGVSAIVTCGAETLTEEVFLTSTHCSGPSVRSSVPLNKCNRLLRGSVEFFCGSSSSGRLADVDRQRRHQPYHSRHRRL

`CC(C)C[C@H](NC(=O)OC(C)(C)C)C(=O)N1CCC[C@@H]1C(=O)N1C(C(=O)OCC2CCCCC2)C1C(=O)OCC1CCCCC1` (mixture of isomers) registered a Ki in data set [1] of 0.77 µM. For the same compound, the inhibition in data set [2] was greater than 50%; in [3], less than 50%; in data set [4], less than 50%; in [5] it was less than 50%; in data set [7], less than 50%. For the same compound, the inhibition result in data set [6] is “inactive”.
For the compound `CC(C)C[C@H](NC(=O)OC(C)(C)C)C(=O)N1CCC[C@@H]1C(=O)N1C(C(=O)OCCc2ccccc2)C1C(=O)OCCc1ccccc1` (mixture of isomers), the Ki came to 7.7 µM in data set [8] and 1.6 µM in data set [1]. Besides, the inhibition in data set [2] was greater than 50%; in data set [3], less than 50%; in data set [4], less than 50%; in data set [5], greater than 50%; in [7] it was less than 50%. Moreover, the inhibition result in [6] is “inactive”.
For the compound `CC(C)C[C@H](NC(=O)OC(C)(C)C)C(=O)N1CCC[C@@H]1C(=O)N1C(C(=O)O)C1C(=O)OC(C)(C)C` (mixture of isomers), the inhibition in data set [2], in data set [3], in data set [4], in data set [5] and in [7] was less than 50% throughout. Besides, in data set [6], the inhibition entry is “inactive”.
In data set [1], `CC(C)C[C@H](NC(=O)OC(C)(C)C)C(=O)N1CCC[C@@H]1C(=O)N1C(C(=O)OCc2ccccc2)C1C(=O)OCc1ccc2ccccc2c1` (mixture of isomers) gave a Ki of 0.8 µM. In addition, the inhibition was greater than 50% in data set [2]; less than 50% in data set [3]; less than 50% in data set [4]; less than 50% in data set [5]; less than 50% in data set [7]. Further, in data set [6], the inhibition result was “inactive”.
`CC(C)C[C@@H](NC(=O)OC(C)(C)C)C(=O)N1CCC[C@H]1C(=O)N1[C@@H](C(=O)OCc2ccccc2)[C@@H]1C(=O)OCc1ccccc1` yielded an EC50 in data set [9] of 95 µM. For the same compound, the values for the Ki in data set [8], in data set [1] and in data set [10] were 30.9 µM, 3.4 µM and 15.2 µM, respectively. The inhibition result in data set [4], in data set [6] and in data set [7] was “inactive” in each case.
As to `CC[C@H](C)[C@H](NC(=O)OC(C)(C)C)C(=O)N1CCC[C@@H]1C(=O)N1[C@@H](C(=O)OCc2ccccc2)[C@@H]1C(=O)OCc1ccccc1`, the values for the EC50 in data set [9] and in [12] were 9.8 µM and 2 µM, respectively. Besides, the Activity in [11] is greater than 250 µM.
In the case of `CCOC(=O)C1C(C(=O)O)N1C(=O)[C@H]1CCCN1C(=O)[C@H](CC(C)C)NC(=O)OC(C)(C)C` (mixture of isomers), the inhibition in [2], in [3], in data set [4], in data set [5] and in data set [7] was less than 50% in each case. In addition, the inhibition result in [6] was “inactive”.
Consider `CCOC(=O)C1C(C(=O)OCc2ccccc2)N1C(=O)[C@H]1CCCN1C(=O)[C@H](CC(C)C)NC(=O)OC(C)(C)C` (mixture of isomers), for which the inhibition in [2], in data set [3], in [4], in [5] and in [7] was less than 50% throughout. For the same compound, the inhibition entry in data set [6] was “inactive”.
For the compound `CC(C)C[C@H](NC(=O)OC(C)(C)C)C(=O)N1CCC[C@@H]1C(=O)N1C(C(=O)O)C1C(=O)OCCCc1ccccc1` (mixture of isomers), the inhibition in [2] is less than 50%; in data set [3], less than 50%; in [4] it was less than 50%; in data set [5], less than 50%; in [7], greater than 50%. This compound came in with an inhibition constant (Ki) in data set [13] of 28.6 µM. The inhibition entry in [6] is “inactive”. Besides, in [14], the K was found to be 55.8 M⁻¹ s⁻¹.
Turning to `CC(C)C[C@H](NC(=O)OC(C)(C)C)C(=O)N1CCC[C@@H]1C(=O)N1C(C(=O)OCc2ccccc2)C1C(=O)OCC1CCCCC1` (mixture of isomers), the Ki in data set [8] turned out to be 7.6 µM; in data set [1], 1.8 µM. In addition, the inhibition in data set [2] is greater than 50%; in data set [3] it was less than 50%; in data set [4], less than 50%; in data set [5], greater than 50%; in data set [7], less than 50%. The inhibition entry in [6] is “inactive”.
Compound `CC(C)C[C@H](NC(=O)OC(C)(C)C)C(=O)N1CCC[C@@H]1C(=O)N1C(C(=O)OCCCc2ccccc2)C1C(=O)OCCCc1ccccc1` (mixture of isomers) came in with a Ki in data set [1] of 0.9 µM. Also, the inhibition is greater than 50% in data set [2]; less than 50% in data set [3]; less than 50% in data set [4]; less than 50% in [5]; less than 50% in data set [7]. In data set [6], the inhibition result was “inactive”.
As for `CC(C)C[C@@H](NC(=O)OC(C)(C)C)C(=O)N1CCC[C@H]1C(=O)N1[C@H](C(=O)OCc2ccccc2)[C@H]1C(=O)OCc1ccccc1`, the values for the EC50 in data set [9] and in data set [12] were 35.4 µM and 2.7 µM, respectively. For the same compound, the Ki in data set [8] is 0.79 µM; in [1], 2.1 µM; in data set [13] it was 28.3 µM; in [15], 4 µM. Also, the inhibition result in data set [6] was “inactive”.
Take `CC(C)C[C@@H](NC(=O)OC(C)(C)C)C(=O)N1CCC[C@@H]1C(=O)N1[C@H](C(=O)OCc2ccccc2)[C@H]1C(=O)OCc1ccccc1`: the result in data set [16] was inactive. Also, the inhibition result in [4], in data set [6] and in [7] was “inactive” throughout.
`CC(C)C[C@H](NC(=O)OC(C)(C)C)C(=O)N1CCC[C@@H]1C(=O)N1C(C(=O)OCc2ccccc2)C1C(=O)OCc1ccccc1` (mixture of isomers): the inhibition constant Ki in [8] stood at 1.8 µM; in data set [1], 2.8 µM; in data set [15], 12 µM; in data set [10], 1.5 µM. Further, the inhibition in data set [2], in [3], in [4], in data set [5] and in data set [7] was greater than 50% throughout. Also, in data set [6], the inhibition entry was “inactive”.
As to `CC(C)C[C@H](NC(=O)OC(C)(C)C)C(=O)N1CCC[C@H]1C(=O)N1[C@H](C(=O)OCc2ccccc2)[C@H]1C(=O)OCc1ccccc1`, the result in data set [16] was inactive. Further, the inhibition entry in data set [4], in data set [6] and in data set [7] was “inactive” throughout.
Consider `CC(C)C[C@H](NC(=O)OC(C)(C)C)C(=O)N1CCC[C@@H]1C(=O)N1C(C(=O)OCCc2ccccc2)C1C(=O)OCc1ccccc1` (mixture of isomers), for which the Ki in data set [8] came out at 5.5 µM; in [1] it was 1.92 µM. Further, the inhibition is greater than 50% in data set [2]; less than 50% in data set [3]; less than 50% in data set [4]; greater than 50% in data set [5]; less than 50% in [7]. Also, the inhibition result in data set [6] is “inactive”.
For the compound `CC(C)C[C@H](NC(=O)OC(C)(C)C)C(=O)N1CCC[C@@H]1C(=O)N1C(C(=O)OCc2ccccc2)C1C(=O)OC(C)(C)C` (mixture of isomers), the inhibition in [2], in [3], in data set [4], in data set [5] and in data set [7] was less than 50% throughout. Further, the inhibition entry in [6] was “inactive”.
Consider `CC(C)C[C@H](NC(=O)OC(C)(C)C)C(=O)N1CCC[C@@H]1C(=O)N1C(C(=O)OCCCc2ccccc2)C1C(=O)OCc1ccccc1` (mixture of isomers), for which the Ki in [1] was 1.36 µM. Besides, the inhibition in data set [2] was greater than 50%; in data set [3], less than 50%; in data set [4], less than 50%; in data set [5], less than 50%; in data set [7] it was less than 50%. For the same compound, the inhibition result in data set [6] is “inactive”.
As for `CC(C)C[C@H](NC(=O)OC(C)(C)C)C(=O)N1CCC[C@@H]1C(=O)N1[C@H](C(=O)OCc2ccccc2)[C@H]1C(=O)OCc1ccccc1`, the EC50 in data set [9] worked out at 39.6 µM; in data set [12] it was 2.2 µM. Moreover, the Ki was 0.9 µM in data set [8], 1.7 µM in data set [1], 43.9 µM in [13] and 6 µM in [15]. Besides, in [6], the inhibition entry is “inactive”.

In general, Ki refers to a measure of affinity in units of concentration, obtained from inhibition or displacement. For orientation: inhibition means the relative decrease from the control value, in per cent. As a reminder, the EC50 is the concentration needed to bring the measured effect to its halfway point. Lower therefore signals higher potency in that assay.
